In US10391095B2, “DNA-PK inhibitors” (Vertex Pharmaceuticals Incorporated, priority 2012, dated 2019) one finds Ki data, which are given here for 52 compounds.

Usually Ki stands for the dissociation constant of the complex between target and ligand, obtained from inhibition or displacement.

The test concerns the target DNA-PK (Homo sapiens, UniProt P78527). Description: DNA-PK inhibition assay (radiometric, 33P-ATP). To be noted: 100 μM ATP, competitive tight-binding fit. In kind it is biochemical. The procedure, abridged:
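Approx. 6 nM DNA-PK with 10 µg/mL sheared dsDNA, 0.8 mg/mL peptide substrate and 100 µM 33P-ATP in HEPES pH 7.5, 10 mM MgCl2; 45 min, phosphoric acid quench. Phosphopeptide captured on filter plates and counted by scintillation; Ki from a competitive tight-binding model fit.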

As for `Cc1ccc2cc(-c3cc(NC[C@@H](C)c4ccnc5c4OCCO5)ncn3)ccc2n1` [Compound 555], the Ki was less than 30 nM.
`CC(=O)c1ccc(-c2cc(NC[C@@H](C)c3ccnc4c3OCC4)ncn2)cc1` [Compound 596] yielded an inhibition constant (Ki) of less than 30 nM.
For `CNC(=O)c1ccc([C@H](C)CNc2cc(-c3ccc(Nc4nc[nH]n4)nc3)ncn2)c(OC)c1` [Compound 354], the Ki was less than 30 nM.
With `CNC(=O)c1c(F)cnc2c([C@H](C)CNc3cc(-c4ccc(NC5CC5)nc4)ncn3)cccc12` [Compound 921] the figure was less than 30 nM; with `CC(CNc1cc(-c2ccc(C(=O)NCCC#N)cc2)ncn1)c1ccnc2cccnc12` (stereo not shown) [Compound 431], less than 30 nM; with `CC(=O)N1CCN(c2ccc(-c3cc(NCC(C)c4ccccc4OCc4ccccc4)ncn3)cn2)CC1` (stereo not shown) [Compound 135], less than 30 nM.
`CCOC(=O)c1cn2c(n1)CN(c1cc(NC[C@@H](C)c3cccc4c(C(=O)NC)ccnc34)ncn1)CC2` [Compound 794] yielded a Ki of less than 30 nM.
For `COC(=O)c1ccc(C(C)CNc2cc(-c3ccc(N4CCN(C(C)=O)CC4)nc3)ncn2)c(OC)c1` (stereo not shown) [Compound 116] the value was less than 30 nM; for `COc1cc(CO)ccc1C(C)CNc1cc(-c2ccc(N3CCN(C(C)=O)CC3)nc2)ncn1` (stereo not shown) [Compound 115], less than 30 nM.
`CNC(=O)c1ccc([C@H](C)CNc2cc(-c3ccc4scnc4c3)ncn2)c(OC)c1` [Compound 316] registered an inhibitory constant (Ki) of less than 30 nM.
With `COc1ccccc1[C@H](C)CNc1cc(-c2ccc(NC(C)CO)nc2)ncn1` (single isomer, unassigned) [Compound 126] the figure was less than 30 nM; with `CNC(=O)c1c(F)cnc2c([C@H](C)CNc3cc(-c4csc(OC)n4)ncn3)cccc12` [Compound 787], less than 30 nM.
With `CNC(=O)c1ccnc2c([C@H](C)CNc3cc(-c4ccc(N5CCN(CC(F)F)CC5)nc4)ncn3)cccc12` [Compound 756] the figure was less than 30 nM.
The compound `Cc1ccc(-c2cc(NCC(C)c3ccccc3OC3COC3)ncn2)cn1` (stereo not shown) [Compound 101] showed a Ki of less than 30 nM.
In turn, `CNC(=O)c1ccc([C@H](C)CNc2cc(-c3cnc4c(ccn4CCO)c3)ncn2)c(OC)c1` [Compound 269] showed an inhibition constant Ki of less than 30 nM.
`Cc1ccc(-c2cc(NC[C@@H](C)c3cccc4c(=O)n(C)cnc34)ncn2)cn1` [Compound 698] yielded a Ki of less than 30 nM.
In turn, `COc1cc(F)c(F)cc1C(C)CNc1cc(-c2ccc(C)nc2)ncn1` (stereo not shown) [Compound 117] returned a Ki of less than 30 nM.
Regarding `COc1cc(C(=O)NCC(F)F)ccc1[C@H](C)CNc1cc(-c2ccc(C)nc2)ncn1` [Compound 405], the inhibition constant (Ki) is less than 30 nM.
In turn, `COc1ccccc1CCNc1cc(-c2ccc(C)nc2)ncn1` [Compound 11] had a Ki of less than 30 nM.
For `Cc1ccc(-c2cc(NCCc3cccc4c3OCC4)ncn2)cn1` [Compound 60] the value was less than 30 nM; for `CNC(=O)c1ccc([C@H](C)CNc2cc(-c3ccc(NCCCO)nc3)ncn2)c(OC)c1` [Compound 355], less than 30 nM.
With `CNC(=O)c1ccc(C(C)CNc2cc(-c3ccc(OC(C)C)nc3)ncn2)c(OC)c1` (stereo not shown) [Compound 324], the Ki was less than 30 nM.
On to `CNC(=O)c1ccnc2c([C@H](C)CNc3cc(-c4cnc(C5CCC5)nc4)ncn3)ccc(F)c12` [Compound 851], for which the Ki was less than 30 nM.
The compound `CNC(=O)c1ccnc2c([C@H](C)CNc3cc(-c4ccc(C5CC5)nc4)ncn3)cccc12` [Compound 847] came in with a Ki of less than 30 nM.
The compound `CNC(=O)c1ccc([C@H](C)CNc2cc(-c3cnc4c(cnn4CC(C)(C)O)c3)ncn2)c(OC)c1` [Compound 285] came in with a Ki of less than 30 nM.
As to `CNCCNc1ccc(-c2cc(NC[C@@H](C)c3ccc(C(=O)NC)cc3OC)ncn2)cn1` [Compound 469], the Ki was less than 30 nM.
With `CNC(=O)c1ccnc2c([C@H](C)CNc3cc(-c4ccc(C(C)C)nc4)ncn3)cccc12` [Compound 848] the figure was less than 30 nM; with `CNC(=O)c1ccc(C(C)CNc2cc(-c3cnc4c(cnn4C(C)(C)C(=O)O)c3)ncn2)c(OC)c1` (stereo not shown) [Compound 284], less than 30 nM.
Turning to `CNC(=O)c1ccnc2c([C@H](C)CNc3cc(-c4cnc(C)s4)ncn3)cccc12` [Compound 778], the inhibition constant (Ki) is less than 30 nM.
`CNCCNc1ccc(-c2cc(NC[C@@H](C)c3ccnc4c3OCC4)ncn2)cn1` [Compound 483]: the Ki was less than 30 nM.
The compound `CNC(=O)c1c(F)cnc2c([C@H](C)CNc3cc(-c4ccnc(C5CC5)c4)ncn3)cccc12` [Compound 917] showed a Ki of less than 30 nM.
`COc1ccc(N)cc1C(C)CNc1cc(-c2ccc(C)nc2)ncn1` (stereo not shown) [Compound 290] yielded a Ki of less than 30 nM.
On to `Cc1ccc(-c2cc(NCCc3ccccc3OC3CC3)ncn2)cn1` [Compound 86], for which the inhibitory constant (Ki) was less than 30 nM.
Compound `COc1ccccc1[C@H](C)CNc1cc(-c2cnc3c(cnn3C3CCN(C)CC3)c2)ncn1` [Compound 83] came in with a Ki of less than 30 nM.
Consider `CC(CNc1cc(-c2cnc3c(cnn3CCO)c2)ncn1)c1ccc(F)cc1OC1CC1` (stereo not shown) [Compound 275], for which the Ki is less than 30 nM.
In turn, `CNC(=O)c1ccnc2c([C@H](C)CNc3cc(-c4cnc5c(c4)OCCO5)ncn3)ccc(F)c12` [Compound 936] registered a Ki of less than 30 nM.
As for `CNC(=O)c1c(F)cnc2c([C@H](C)CNc3cc(-c4cnc(C)s4)ncn3)cccc12` [Compound 828], the Ki was less than 30 nM.
Turning to `CNC(=O)c1c(F)cnc2c([C@H](C)CNc3cc(-c4ccc(C(O)C(C)C)nc4)ncn3)cccc12` (stereo partly shown) [Compound 927], the Ki is less than 30 nM.
Compound `CNC(=O)c1ccnc2c([C@H](C)CNc3cc(-c4cncnc4)ncn3)cccc12` [Compound 605] displayed a Ki of less than 30 nM.
`CNC(=O)c1ccnc2c([C@H](C)CNc3cc(-c4ccc5c(c4)CNCC5)ncn3)cccc12` [Compound 801]: the inhibitory constant (Ki) is less than 30 nM.
Regarding `Cc1ccc(-c2cc(NC[C@@H](C)c3cc(C)nc4c3OCC4)ncn2)cn1` [Compound 502], the Ki is less than 30 nM.
`CNC(=O)c1ccnc2c([C@H](C)CNc3cc(-c4ccc(C(O)C(C)C)nc4)ncn3)cccc12` (stereo partly shown) [Compound 925] had an inhibition constant (Ki) of less than 30 nM.
For the compound `CC(CNc1cc(-c2ccc(N3CCN(C)CC3)nc2)ncn1)c1ccccc1OC1COC1` (stereo not shown) [Compound 102], the Ki was less than 30 nM.
For `CNC(=O)c1c(F)cnc2c([C@H](C)CNc3cc(-c4cnc(C)c(F)c4)ncn3)cccc12` [Compound 973], the Ki was less than 30 nM.
Compound `COc1ccccc1CCNc1cc(-c2ccc(N3CCCC3)nc2)ncn1` [Compound 46] registered an inhibition constant (Ki) of less than 30 nM.
`CNC(=O)c1ccc(C(C)CNc2cc(-c3cnc4[nH]ncc4c3)ncn2)c(OC)c1` (stereo not shown) [Compound 167] had a Ki of less than 30 nM.
Take `COc1ccccc1[C@H](C)CNc1cc(-c2ccc(NCC3(O)CC3)nc2)ncn1` [Compound 204]: the Ki was less than 30 nM.
With `Cc1ncc(-c2cc(NC[C@@H](C)c3cccc4scnc34)ncn2)cn1` [Compound 658] the figure was less than 30 nM.
Take `COc1ccccc1[C@H](C)CNc1cc(-c2cnc3c(cnn3CC3CC3)c2)ncn1` [Compound 140]: the Ki was less than 30 nM.
Compound `COc1sccc1C(C)CNc1cc(-c2ccc(C)nc2)ncn1` (stereo not shown) [Compound 257] returned a Ki of less than 30 nM.
The compound `COc1ccsc1C(C)CNc1cc(-c2cnc3c(cnn3CC3CC3)c2)ncn1` (stereo not shown) [Compound 232] came in with a Ki of less than 30 nM.
The compound `CNC(=O)c1ccnc2c([C@H](C)CNc3cc(-c4cnnc(C)c4)ncn3)ccc(F)c12` [Compound 969] yielded a Ki of less than 30 nM.
